Experimental findings from patent publication US12296018B2, “Albumin binding peptide-drug (AlBiPeD) conjugates and methods of making and using same” (priority 2018, dated 2025) are described below.

In data set [1] the test system is MIA PaCa-2 pancreatic tumor xenografts. Nature of the data set: In vivo tumor regression, MIA PaCa-2 xenograft model. More on the design: species or system nude BALB/c mice. On the procedure:
(§1) In vivo tumor regression For in vivo tumor implantation, C26 cells at 5×10^5 cells in 30 μL Minimum Essential Medium (MEM) (Invitrogen, Carlsbad, CA) and MIA PaCa-2 cells at 2×10^6 cells in 50 μL 10:90 v/v MEM: Matrigel matrix (Corning Inc, Corning, New York) were inoculated in the right flank of normal and athymic nude BALB/c mice, respectively. Tumor cells were allowed to grow until the tumor volume, calculated as π/6×length×width^2, reached 75-100 mm^3 for C26 tumors and 100-125 mm^3 for MIA PaCa-2 tumors. Tumor bearing mice were then treated with ABD-Dox at 10 and 20 mg Dox Equiv.kg^−1 BW, AlDox at 20 mg Dox Equiv.kg^−1 BW, and free Dox at 10 mgkg^−1 BW. Tumor volumes and body weights were monitored for 100 days after treatment and mice displaying excessive tumor volume (>[…]), body weight loss (>15%), or ill health were euthanized. Tumor growth and survival data were analyzed by GraphPad Prism software. Survival curves were generated with the Kaplan-Meier method and compared with the log-rank (Mantel-Cox) test. Tumor growth data were compared with a paired one-way ANOVA followed by Tukey-Kramer (Tukey's) post-hoc test. P<0.05 was considered as statistically significant.
(§2) For in vivo tumor regression studies, a single dose of ABD-Dox was injected via tail vein at 10 mg Dox Equiv.kg^−1 BW (MTD of free Dox) and 20 mg Dox Equiv.kg^−1 BW (MTD of ABD-Dox) in separate cohorts of BALB/c mice with s.c. C26 tumors or nude mice with s.c. MIA Paca-2 tumors. Free Dox was injected at its MTD of 10 mgkg-1 BW, and AlDox was injected at 20 mg Dox Equiv.kg^−1 BW, a dose that was reported to be safe in previous studies. All animals were injected when the tumors were 75-100 mm; in size for C26 tumors and 100-125 mm^3 for MIA PaCa-2 tumors.

The nature of another data set: Aqueous solubility. The format is physicochemical. How it is done: To remove the ELP160 tag, the KEKE-ELP160-srt-ABD-Dox conjugate was buffer exchanged into sortase reaction buffer, and was reacted with (His)6-sortase A-ELP40 in the presence of a 50 fold molar excess of triglycine (FIG. 2A). The efficiency of the sortase reaction, defined as the percent conversion of ELP-ABD-Dox substrate to ABD-Dox, was determined by size exclusion HPLC and was calculated to be ≥85% (FIG. 3A). The ABD-Dox product was then separated from (His)6-sortase A-ELP40, the cleaved KEKE-ELP160 tag, and unreacted KEKE-ELP160-srt-ABD-Dox in the sortase reaction solution by preparative size exclusion chromatography (SEC). The number of Dox molecules conjugated per ABD (Dox/ABD molar ratio) was measured before the sortase reaction by dissolving the lyophilized KEKE-ELP160-srt-ABD-Dox conjugate in PBS and calculating the moles of KEKE-ELP160-srt-ABD-Dox and Dox gravimetrically and spectrophotometrically at 488 nm, respectively. 3-4 Dox molecules were attached to each KEKE-ELP160-srt-ABD-(CGG)8. However, following removing the ELP160 tag, the resulting ABD-Dox conjugate was too hydrophobic and insoluble in pH 7.4 PBS because of the high number of conjugated Dox molecules. […] Formulation of AlDox in acidic pH, however, is undesirable as it can trigger the premature, in vitro degradation of the hydrazone bond between Dox and EMCH, converting AlDox back to free Dox.

For data set [2], the system named is C26 colon carcinoma tumors. Nature of the data set: In vivo tumor regression, syngeneic C26 model. The note with it: 20 mg Dox Equiv.kg^−1 BW. More on the design: species or system BALB/c mice. How it is done:
as §1, §2

Data set [3] concerns AsPC-1 pancreatic cancer cells. Nature of the data set: In vitro cytotoxicity (MTS, 72 h) AsPC-1. Format: cell-based, human. The note with it: 72 h incubation, Dox Equiv. concentration. How it is done:
(§3) In vitro cytotoxicity C26 murine colon carcinoma cells and three different pancreatic cancer cell lines, BxPC-3, AsPC-1, and MIA PaCa-2, were used to study the in vitro cytotoxicity of ABD-DOX and Dox. Cells were cultured and grown as monolayers at 37° C. with C02 in a humidified incubator and were passaged at ˜80% confluency using 0.05% trypsin-EDTA (Invitrogen, Carlsbad, CA). C26, BxPC-3, AsPC-1, and MIA PaCa-2 cells were seeded in 96-well plates (5,000 cells/well) and incubated overnight. Three-fold serial dilutions of drug were then added to the wells in triplicate and also to control wells (media with no cells) to correct for the background Dox absorbance. After 72 h treatment, 20 μL MTS reagent was added to each well and was incubated for 3 h at 37° C., and the absorbance at 490 nm was measured using a Victor3 plate reader (Perkin Elmer, Boston, MA). Cell viability (%) was defined as the percentage of the absorbance of the drug-treated cells relative to buffer-treated cells and IC50 values were determined using logistic non-linear regression analysis with GraphPad Prism software. The IC50 was defined as the Dox Equiv. concentration of formulations resulting in 50% growth inhibition compared with a negative control, buffer-treated cells.

Data set [4] can be described thus: Tissue biodistribution in C26 tumor-bearing BALB/c mice. The format is in vivo. From the text: The tissue concentration of Dox.
A further data set relates to MIA PaCa-2 cells. Nature of the data set: In vitro cytotoxicity (MTS, 72 h) MIA PaCa-2. The format is cell-based, human. The note with it: 72 h incubation, Dox Equiv. concentration. On the procedure:
as §3

Data set [5] relates to C26 murine colon carcinoma cells. Nature of the data set: In vitro cytotoxicity (MTS, 72 h) C26. Format: cell-based. The note with it: 72 h incubation, Dox Equiv. concentration. On the procedure:
as §3

The nature of data set [6]: Intravenous pharmacokinetics in healthy BALB/c mice. On the procedure: Pharmacokinetics and biodistribution Pharmacokinetics and biodistribution experiments were performed to study the concentration of ABD-Dox in blood and tissues over time following intravenous (i.v.) administration. For the pharmacokinetic study, ABD-Dox and Dox in PBS and AlDox in 10 mM sodium phosphate, 5% D-(+)-glucose, pH 5.8 were injected at 5 mg Dox Equiv. per kg of body weight (BW) into healthy BALB/c mice. 10 μL blood samples were collected at 40 s, 15 min and 30 min, and 2, 4, 8, 24, 48, 72 and 96 h post injection and were diluted into heparinized PBS (1 kUmL^−1), and centrifuged at 4,000 rcf, 10 min, 4° C. to collect the plasma. 10 μL of the plasma samples were then diluted in 490 μL of acidified isopropanol (0.075 M HCl, 10% water) and incubated overnight at 4° C. For the biodistribution study, ABD-Dox and Dox in PBS were injected at 5 mg Dox Equiv.kg^−1 BW into C26 tumor-bearing BALB/c mice. At 2 h, 24 h, and 72 h post-injection, mice were sacrificed and tumor, heart, lung, liver, spleen, kidney and muscle tissues were dissected, weighed, homogenized in acidified isopropanol using a Mini-Beadbeater (Biospec, Bartlesville, OK) with 2 mm diameter zirconia beads for 1-2 min, and were incubated overnight at 4° C. Following overnight incubation in acidified isopropanol, plasma and tissue samples were centrifuged at 16,000 rcf, 4° C. for 10 min and the supernatants were loaded onto black 96-well plates in duplicate and the Dox fluorescence was measured using on a Victor3 microplate reader (Perkin Elmer, Waltham, MA) with fluorescence excitation at 485 nm and emission at 590 nm. Tissues were also dissected from three untreated mice, processed in the same manner, serially diluted, and loaded on the plates to prepare a standard curve of fluorescence intensity versus the weight for each tissue from which the background tissue fluorescence was calculated and subtracted for each sample. Serial dilution of free Dox in acidified isopropanol was used as standard to quantify the Dox concentration as […] per liter of plasma (μM) and as the percent of the injected dose per gram (% ID g^−1) in the tumor and other tissues. Plasma concentrations of Dox Equiv. of ABD-Dox versus time were fit to a two-compartment model using SAAM II software (SAAM Institute, Seattle, WA) and the elimination half-life and the area-under-curve were computed. The tissue concentration of Dox. Equiv. of ABD-Dox and free Dox at each time point were compared in GraphPad Prism software (GraphPad, San Diego, CA) by Student's t-test with P<0.05 considered statistically significant.

A short description of data set [7]: Dose-escalation study, maximum tolerated dose. The conditions noted are these: i.v., healthy BALB/c mice, two weeks; no mortality or body weight loss greater than 15%. The format is in vivo, BALB/c mice. On the procedure: With these encouraging biodistribution results in hand, tumor regression in vivo by ABD-Dox was investigated. The maximum tolerated dose (MTD) of ABD-Dox was established in healthy mice. A range of doses of ABD-Dox were injected into healthy BALB/c mice, and body weight loss and mortality of the mice were monitored over a two-week period to assess systemic toxicity. […] Using these criteria, the MTD was determined to be 20 mg Dox Equiv.kg^−1 for ABD-Dox (FIG. 7) and 10 mgkg^−1 BW MTD of free Dox (FIG. 8).

Data set [8] deals with BxPC-3 pancreatic cancer cells. As to the kind of experiment: In vitro cytotoxicity (MTS, 72 h) BxPC-3. The format is cell-based, human. The note with it: 72 h incubation, Dox Equiv. concentration. On the procedure:
as §3

pIC50: −log10 of the molar value. Where “and” joins values, the source holds several entries; their conditions need not be identical. Equal values may be shown once. Where only a bound is given, the exact number is not on record here.

The pIC50 is the negative decadic logarithm of the IC50, by convention in mol/L.

In the case of `COc1cccc2c1C(=O)c1c(O)c3c(c(O)c1C2=O)C[C@@](O)(/C(CO)=N/NC(=O)CCCCCN1C(=O)C=CC1=O)C[C@@H]3O[C@H]1C[C@H](N)[C@H](O)[C@H](C)O1` [AlDox, Aldoxorubicin, reference compound], the “mice showing tumor disappearance” value in data set [1] (by day 15 after treatment, 20 mg Dox Equiv.kg^−1 BW) is listed as 50%. Moreover, the “tumor recurrence in tumor-eradicated mice” value in data set [1] (by day 50, 20 mg Dox Equiv.kg^−1 BW) is “all”. In addition, in the data set “Aqueous solubility”, the “concentration at which acidic pH is required for solubility in aqueous solutions” value was no less than 0.5 mg Dox Equiv.mL^−1. In addition, in “Aqueous solubility” (physiological pH), the “solubility” value was “poor solubility”. In data set [2], the “eradication of C26 tumors” value is recorded as “incomplete eradication”, the “mice that did not survive over the 100-day course of study” value was determined as 25% and the “recurrence of the primary tumor” value is reported as “without recurrence of the primary tumor in any mice”.

As for `COc1cccc2c1C(=O)c1c(O)c3c(c(O)c1C2=O)C[C@@](O)(C(=O)CO)C[C@@H]3O[C@H]1C[C@H](N)[C@H](O)[C@H](C)O1` [free Dox, Doxorubicin, reference compound], the pIC50 in [3] is 5.60; in the data set on MIA PaCa-2 cells, 7.40; in data set [5], 6.30 and 6.29; in data set [8] it was 6.40. Further, the “concentration of Dox equivalent in tumor” value in data set [4] (2 h after administration) came to 1.6 % ID.g^−1. The minimum tumor accumulation in data set [4] (over 72 h) amounted to 0.07 % ID.g^−1. In [6] (15 min after i.v. injection), the “concentration in blood relative to initial concentration” value is given as “less than 2%”. The “in vivo elimination half-life” value in [6] (i.v., 5 mg Dox Equiv. per kg BW) is given as “on the order of minutes”. Further, the “maximum tolerated dose (MTD)” value in data set [7] is 10 mgkg^−1 BW.
